Assay results from patent US20140120060A1, “TREATMENT OF RHEUMATOID ARTHRITIS AND ASTHMA USING PI3 KINASE INHIBITORS” (INFINITY PHARMACEUTICALS, INC., priority 2012, published 2014).
“Also recorded” adds a separate entry of the source. Like-named read-outs stand apart in the source and are kept apart here.

What was measured:
B cell = B cell proliferation; format: cell-based
Murine B-cell = Murine B-cell proliferation; format: cell-based; details: Mus musculus
Human B-cell = Human B-cell proliferation; format: cell-based
Human T-cell = Human T-cell proliferation; format: cell-based
[1] = Plasma protein binding, human plasma; format: in vitro ADME
Text: […]. […] […].

PBMCs = experiment: LPS induced cytokine production in PBMCs; format: cell-based, human
Experimental: These experiments were conducted using PBMCs.

[2] = system: established type II collagen-induced arthritis; experiment: Rat collagen-induced arthritis model (established); format: in vivo
Experimental: Etanercept (10 mg/kg) was administered subcutaneously on days 10 and 13 as a positive control. The study was terminated on day 17.

[3] = system: developing or established type II collagen arthritis; experiment: Rat collagen-induced arthritis model, alone or in combination with methotrexate or etanercept; format: in vivo; details: 2.5, 5 or 50 mg/kg daily oral, alone or in combination with MTX or etanercept
Experimental: Treatment was administered either alone or in combination with the reference compounds MTX, or etanercept. All rats were administered MTX, vehicle 2 (1% CMC in water), or vehicle 1 on days 0-20 in order to keep dose manipulations consistent for all groups. Animals were terminated on day 21. Efficacy evaluation was based on daily ankle caliper measurements, ankle diameter expressed as area under the curve (AUC), and terminal hind paw weights.

PG-PS model of arthritis = experiment: Rat mono-articular PG-PS model; format: in vivo
Experimental: Animals are initially randomized into groups based on body weight but any with no ankle swelling following priming are eliminated from the groups to be reactivated. 10/group are retained into the primary treatment groups. The remaining animals are the baseline controls (Group 1).
Rats that have ankle inflammation are allowed to recover for two weeks, and then the swelling is reactivated (day 0) by a tail vein injection of 0.5 ml of 0.4 mg/ml PG-PS. Treatment with the test compounds is given QD the day prior to reactivation on day 0 and then daily.
Animals have caliper measures and paw volumes taken of ankles on day −3 (prior to reactivation on day 0 in the AM) and then on days 1, 2, 3, 4 (2 hrs post-dose) to determine if any anti-inflammatory effects are present in treated rats.
Scoring of Joints: PGPS ankles or knees are given scores of 0-5 for inflammation and bone resorption according to the following criteria: […]

DTH ear swelling = experiment: Murine model of delayed type hypersensitivity (DNFB); format: in vivo
Experimental: The animals were subsequently challenged with DNFB on the pinna of the ear on day 5 to initiate an inflammatory reaction that was measured 24 hours later.

[4] = system: hemodynamic and electrocardiographic parameters; experiment: Cardiovascular study in instrumented cynomolgus monkey; format: in vivo
Text: Four non-naive, male monkeys implanted with radiotelemetry transmitters were utilized during the conduct of this study.

[5] = Pharmacokinetics in cynomolgus monkeys; format: in vivo, monkey
Caco-2 cell monolayers = experiment: Membrane permeability in Caco-2 cell monolayers; format: in vitro ADME, human
[6] = 13-week repeat-dose safety study in rats; details: both sexes, in vivo, oral; rat, Day 91, combined sexes, 25 mg/kg/day; read-out: mean AUC0-24 hr at the NOAEL
Experimental: (§1) The no observed adverse effect level (NOAEL) in the 13-week rat study was 25 mg/kg/day (150 mg/m^2/day) and the NOAEL in the 13-week monkey study was 5 mg/kg/day (60 mg/m^2/day). On Day 91, the mean AUC0-24 hr values for combined sexes at the NOAELs were 14150 ng*h/mL in the rat, and 4015 ng*h/mL in the monkey.

[7] = 13-week repeat-dose safety study in cynomolgus monkeys; details: both sexes, cynomolgus monkey, in vivo, oral, Day 91, combined sexes, 5 mg/kg/day, read-out: mean AUC0-24 hr at the NOAEL
Experimental: as §1

[8] = Embryo/fetal developmental toxicity study in rats; details: female, rat, in vivo; pregnant rats, last day of dosing, 35 mg/kg/day; read-out: mean AUC0-24 hr at the NOAEL
[9] = In vitro genetic toxicity studies
[10] = system: ovalbumin-induced pulmonary inflammation; experiment: Rat ovalbumin allergic asthma model
[11] = Clinical study in healthy adult subjects: safety
PI3K δ = PI3K δ (Homo sapiens, UniProt O00329); experiment: Clinical study in healthy adult subjects: basophil activation (CD63 on CCR3+ basophils); format: in vivo; parameters: from tissue; host or cells: blood basophils (CCR3+) of healthy adult subjects
[12] = monkey, in vivo, cynomolgus monkeys, IV 1 mg/kg
[13] = monkey, in vivo, cynomolgus monkeys, PO 5 mg/kg suspension

Sequence of PI3K δ (O00329 whole entry): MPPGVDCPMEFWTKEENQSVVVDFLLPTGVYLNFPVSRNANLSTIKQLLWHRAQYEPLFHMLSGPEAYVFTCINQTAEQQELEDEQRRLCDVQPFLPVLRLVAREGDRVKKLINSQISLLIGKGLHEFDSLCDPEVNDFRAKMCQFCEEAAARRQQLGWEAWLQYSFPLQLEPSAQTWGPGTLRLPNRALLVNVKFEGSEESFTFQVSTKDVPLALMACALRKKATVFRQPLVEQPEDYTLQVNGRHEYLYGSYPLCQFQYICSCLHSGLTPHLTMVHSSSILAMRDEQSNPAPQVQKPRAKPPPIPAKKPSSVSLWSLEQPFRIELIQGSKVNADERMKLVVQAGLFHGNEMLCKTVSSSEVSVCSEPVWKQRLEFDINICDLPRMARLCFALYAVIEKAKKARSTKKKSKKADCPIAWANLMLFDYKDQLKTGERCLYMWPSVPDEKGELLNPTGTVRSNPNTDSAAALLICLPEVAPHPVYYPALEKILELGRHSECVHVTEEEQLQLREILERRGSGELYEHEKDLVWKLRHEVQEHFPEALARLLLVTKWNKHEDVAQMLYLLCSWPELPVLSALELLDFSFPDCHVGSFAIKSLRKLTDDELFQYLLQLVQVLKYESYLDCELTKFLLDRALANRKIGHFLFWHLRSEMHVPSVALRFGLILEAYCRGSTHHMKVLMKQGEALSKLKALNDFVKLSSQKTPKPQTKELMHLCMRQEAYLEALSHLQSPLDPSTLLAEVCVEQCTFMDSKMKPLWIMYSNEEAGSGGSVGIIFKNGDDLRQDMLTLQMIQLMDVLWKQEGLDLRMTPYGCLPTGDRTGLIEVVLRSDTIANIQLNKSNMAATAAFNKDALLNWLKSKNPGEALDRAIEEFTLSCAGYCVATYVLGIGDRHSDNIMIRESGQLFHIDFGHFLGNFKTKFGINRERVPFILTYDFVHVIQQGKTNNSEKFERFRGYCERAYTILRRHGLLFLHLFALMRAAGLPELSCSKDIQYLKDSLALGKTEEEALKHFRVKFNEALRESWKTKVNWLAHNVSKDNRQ
Sequence of PI3K δ (P27986 whole entry partner): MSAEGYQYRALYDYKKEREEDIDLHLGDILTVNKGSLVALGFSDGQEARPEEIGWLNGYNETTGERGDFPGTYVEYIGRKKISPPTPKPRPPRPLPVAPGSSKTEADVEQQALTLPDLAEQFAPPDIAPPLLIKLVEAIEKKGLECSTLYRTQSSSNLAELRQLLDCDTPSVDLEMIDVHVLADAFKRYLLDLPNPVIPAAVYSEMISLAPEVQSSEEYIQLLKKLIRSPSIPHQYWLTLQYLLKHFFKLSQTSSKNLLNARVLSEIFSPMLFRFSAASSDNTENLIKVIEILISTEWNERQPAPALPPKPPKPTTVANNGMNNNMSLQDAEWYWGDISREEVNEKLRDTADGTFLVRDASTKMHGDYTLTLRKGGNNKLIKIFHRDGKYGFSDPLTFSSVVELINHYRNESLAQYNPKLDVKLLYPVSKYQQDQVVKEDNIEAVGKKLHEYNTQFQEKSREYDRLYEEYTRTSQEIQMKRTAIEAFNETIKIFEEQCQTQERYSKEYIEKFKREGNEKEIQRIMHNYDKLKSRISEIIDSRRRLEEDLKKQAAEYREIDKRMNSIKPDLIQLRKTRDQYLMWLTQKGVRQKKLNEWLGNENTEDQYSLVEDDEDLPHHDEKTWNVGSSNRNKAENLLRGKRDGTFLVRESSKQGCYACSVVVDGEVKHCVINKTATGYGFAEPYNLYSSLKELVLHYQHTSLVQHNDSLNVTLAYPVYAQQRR

SMILES: C[C@H](Nc1ncnc2[nH]cnc12)c1cc2cccc(Cl)c2c(=O)n1-c1ccccc1 [Compound 292]
- EC50 (B cell): < 100 nM
- EC50 (Murine B-cell): 0.5 nM
- EC50 (Human B-cell): 0.5 nM
- EC50 (Human T-cell): 9.5 nM
- protein bound in human plasma [1]: 95%
- protein bound in human plasma ([1]; 100 μM (41700 ng/mL)): 85.9%
- LPS induced IL-1 production (PBMCs): enhanced
- LPS induced IL-6 production (PBMCs): enhanced
- LPS induced IL-8 production (PBMCs): did not detectably affect
- LPS induced TNF-α production (PBMCs): enhanced
- mean ankle diameter at the end of the treatment period vs vehicle ([2]; PO QD days 10-16, all doses 0.5-10 mg/kg, not at 0.1 mg/kg): significantly decreased
- serum IgE levels vs vehicle controls ([2]; rat CIA model): Significant increases
- summed ankle histological scores ([2]; rat CIA model): prevented inflammation and protected joint bone and cartilage
- effects on parameters of developing and established type II collagen arthritis [3]: beneficial effects
- tolerability [3]: well tolerated
- inflammation when reactivated with PG-PS (PG-PS model of arthritis; FIG. 14A): dose-dependently controlled inflammation
- joint pathology in PG-PS model (PG-PS model of arthritis; FIG. 14B): dose-dependently improved joint pathology
- ear swelling (DTH ear swelling; 0.3, 1, 3 and 10 mg/kg PO): Dose dependent inhibition
- inhibition of ear swelling vs vehicle control (DTH ear swelling; highest dose group (10 mg/kg PO, 30 minutes prior to DNFB challenge)): approximately 50%
- hemodynamic or electrocardiographic parameters ([4]; male cynomolgus monkeys, single oral dose of 5, 30 and 150 mg/kg): No Compound 292-related effects
- waveform abnormalities or arrhythmias ([4]; up to 150 mg/kg): no waveform abnormalities or arrhythmias
- Foral ([5]; cynomolgus monkeys, PO 5 mg/kg suspension): 40%
- AUC(0-inf) [5, 12]: 2380 ng·h/mL
- AUC(0-t) [5, 12]: 2360 ng·h/mL
- Tmax [5, 12]: 0.083 h
- clearance [5, 12]: 7.17 mL/min/kg
- half-life ([5]; monkey, in vivo, cynomolgus monkeys, IV 1 mg/kg, read-out: T1/2 (converted)): 5 h
- Vd ([5]; monkey, in vivo, cynomolgus monkeys, IV 1 mg/kg, read-out: Vss): 1.27 L/kg
- AUC(0-inf) [5, 13]: 4680 ng·h/mL
- AUC(0-t) [5, 13]: 4600 ng·h/mL
- Cmax [5, 13]: 1330 ng/mL
- Tmax [5, 13]: 1.5 h
- half-life ([5]; monkey, in vivo, cynomolgus monkeys, PO 5 mg/kg suspension, read-out: T1/2 (converted)): 5.4 h
- half-life ([5]; monkey, in vivo, monkeys, read-out: half-life (converted)): 5 h
- cell membrane permeability (Caco-2 cell monolayers): moderate
- AUC(0-t) [6]: 14200 ng·h/mL
- AUC(0-t) [7]: 4020 ng·h/mL
- AUC(0-t) [8]: 62200 ng·h/mL
- genetic toxicity [9]: no genetic toxicity
- levels of TNF-α, KC/GRO, IL-13 and IL-5 in the BAL ([10]; 10 mg/kg PO): inhibited; also recorded: significantly suppressed
- neutrophils and eosinophils in the BAL ([10]; 1 and 10 mg/kg PO, 48 hours after re-challenge): significantly reduced
- leukocyte migration into the bronchoalveolar space ([10]; FIG. 16): inhibited
- deaths and serious adverse events (SAEs) ([11]; all doses evaluated): no deaths and no serious adverse events
- safety laboratory or electrocardiogram (ECG) abnormalities ([11]; any portion of the study): No clinically significant safety laboratory or electrocardiogram (ECG) abnormalities
- QTcF at any assessment ([11]; serial ECGs): ≤ 500 ms
- largest change from baseline in QTcF ([11]; serial ECGs): 37 ms
- tolerability ([11]; single doses up to 30 mg and up to 10 mg total daily dose for 14 days): well tolerated
- Emax (reduction of basophil activation vs plasma concentration) (PI3K δ; FIG. 21): 85%
- basophil activation (PI3K δ; single and multiple doses, all dose levels, maximum at 1 hr post dose): dose-dependent reduction
